Measurements: patent publication US20260042753A1 (Merck Patent GmbH, priority 2019, published 2026)
pIC50: −log10 of the molar value. Like-named read-outs stand apart in the source and are kept apart here.

Assays:
[1] = target: mutant cKIT (560-576 and V654A) in GIST430/654 cell line (Homo sapiens (Human), UniProt P10721, DEL560-576/V654A); test: Cellular testing of cKIT mutant inhibitors: phospho-Y307-cKIT Luminex assay in GIST430/654 cells; format: cell-based; conditions: read-out: GIST 430/654 IC50
Procedure, shortened: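 Autophosphorylation of mutant cKIT at Y307 was quantified by a Luminex bead sandwich assay (total-cKIT capture, phosphospecific detection) after 45 min compound exposure in GIST430/654 cells, cultured in medium containing 100 nM imatinib. Signals were normalised to solvent (0.3% DMSO) controls and dose-response curves fitted for IC50.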

c-Kit(V654A) = c-Kit(V654A) (Homo sapiens, UniProt P10721, V654A); test: c-Kit(V654A) assay; format: biochemical
Procedure, shortened: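 Radiometric filter-binding read-out: after 3% phosphoric acid stop, peptide-incorporated 33P on filtermat scintillation-counted. Enzyme: human c-Kit V654A, residues 544–end, N-terminal GST fusion.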

[2] = Table 1, cKIT autophosphorylation, compounds 45 min
[3] = Table 2, corresponding triazole derivatives

mutant cKIT (560-576 and V654A) in GIST430/654 cell line, sequence (P10721 other isoform, or with tags, fused parts or gaps V654A/del 1-25/del 560-576 limits assumed): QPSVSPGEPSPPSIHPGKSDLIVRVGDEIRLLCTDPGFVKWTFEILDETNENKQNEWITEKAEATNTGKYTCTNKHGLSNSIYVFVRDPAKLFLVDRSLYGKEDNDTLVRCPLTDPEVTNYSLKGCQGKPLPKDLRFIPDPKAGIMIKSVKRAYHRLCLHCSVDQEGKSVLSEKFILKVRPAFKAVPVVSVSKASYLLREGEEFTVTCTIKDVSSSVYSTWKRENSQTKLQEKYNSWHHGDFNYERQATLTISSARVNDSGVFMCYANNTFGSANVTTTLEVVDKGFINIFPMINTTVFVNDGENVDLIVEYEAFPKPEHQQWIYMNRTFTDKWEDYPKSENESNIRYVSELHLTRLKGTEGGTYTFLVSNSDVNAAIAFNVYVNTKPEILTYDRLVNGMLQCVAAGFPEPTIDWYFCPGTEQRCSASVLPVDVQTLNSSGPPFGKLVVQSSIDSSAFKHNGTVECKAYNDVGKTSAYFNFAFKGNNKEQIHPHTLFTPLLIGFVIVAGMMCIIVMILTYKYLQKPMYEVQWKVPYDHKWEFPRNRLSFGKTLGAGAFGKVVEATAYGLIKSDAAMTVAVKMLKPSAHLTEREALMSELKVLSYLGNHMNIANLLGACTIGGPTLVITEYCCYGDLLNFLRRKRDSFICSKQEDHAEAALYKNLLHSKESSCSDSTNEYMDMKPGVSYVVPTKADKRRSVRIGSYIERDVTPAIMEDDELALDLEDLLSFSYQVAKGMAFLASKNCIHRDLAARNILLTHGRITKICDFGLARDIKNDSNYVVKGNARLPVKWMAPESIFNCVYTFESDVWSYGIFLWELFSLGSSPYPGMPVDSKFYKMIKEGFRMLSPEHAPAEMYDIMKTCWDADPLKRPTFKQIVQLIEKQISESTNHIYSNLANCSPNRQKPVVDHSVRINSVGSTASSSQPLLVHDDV

SMILES	pIC50 [1, 2]	pIC50 (c-Kit(V654A); Table 1, 200 μM ATP)	pIC50 [1, 3]	pIC50 (c-Kit(V654A); [3])
COCCOc1cc2[nH]nc(-c3cc(-c4ncc(C(=O)N(C)C)s4)no3)c2cc1F [A92, 2-{5-[5-fluoro-6-(2-methoxyethoxy)-1H-indazol-3-yl]-1,2-oxazol-3-yl}-N,N-dimethyl-1,3-thiazole-5-carboxamide]	6.44	7.26		
COCCNC(=O)c1ccc2c(-c3cc(-c4ccc(C(=O)N(C)C)cc4)no3)n[nH]c2c1 [A25, 3-{3-[4-(dimethylcarbamoyl)phenyl]-1,2-oxazol-5-yl}-N-(2-methoxyethyl)-1H-indazole-6-carboxamide]	5.24	7.52		
COc1cc2[nH]nc(-c3cc(-c4ccc(C(=O)N5CCC[C@H]5CS(C)(=O)=O)cc4)no3)c2cc1F [A117, 5-fluoro-3-(3-{4-[(2S)-2-(methanesulfonylmethyl)pyrrolidine-1-carbonyl]phenyl}-1,2-oxazol-5-yl)-6-methoxy-1H-indazole]	7.00	8.44		
COCCOc1cc2[nH]nc(-c3cc(-c4ccc(OCCN5CCS(=O)(=O)CC5)cc4)no3)c2cc1F [A132, 4-[2-(4-{5-[5-fluoro-6-(2-methoxyethoxy)-1H-indazol-3-yl]-1,2-oxazol-3-yl}phenoxy)ethyl]-1lambda6-thiomorpholine-1,1-dione]	7.03	8.80		
COCCOc1cc2[nH]nc(-c3cc(-c4ccc(C(=O)N5Cc6cn[nH]c6C5)cc4)no3)c2cc1F [A208, 5-fluoro-6-(2-methoxyethoxy)-3-[3-(4-{1H,4H,5H,6H-pyrrolo[3,4-c]pyrazole-5-carbonyl}phenyl)-1,2-oxazol-5-yl]-1H-indazole]	7.12	9.13		
COCCOc1cc2[nH]nc(-c3cn(-c4ccc(C5CCNCC5(C)C)cc4)nn3)c2cc1F (stereo not shown) [reference compound]			6.92	7.68
COCCOc1ccc2c(-c3cc(-c4ccc(C(=O)N5CCC[C@@H]5C(C)(C)O)cc4)no3)n[nH]c2c1 [A2, 2-[(2R)-1-(4-{5-[6-(2-methoxyethoxy)-1H-indazol-3-yl]-1,2-oxazol-3-yl}benzoyl)pyrrolidin-2-yl]propan-2-ol]	6.60	8.32		
COCCOc1cc2[nH]nc(-c3cc(-c4ccc(-n5cncn5)cc4)no3)c2cc1Cl [A14, 5-chloro-6-(2-methoxyethoxy)-3-{3-[4-(1H-1,2,4-triazol-1-yl)phenyl]-1,2-oxazol-5-yl}-1H-indazole]	6.29	8.06		
COCCOc1cc2[nH]nc(-c3cc(-c4ccc(S(=O)(=O)N(C)C)cc4)no3)c2cc1F [A144, 4-{5-[5-fluoro-6-(2-methoxyethoxy)-1H-indazol-3-yl]-1,2-oxazol-3-yl}-N,N-dimethylbenzene-1-sulfonamide]	5.72	8.49		
COCCOc1cc2[nH]nc(-c3cn(-c4ccc(C(=O)N5CCN(C6COC6)CC5)cc4)nn3)c2cc1F [reference compound]			6.10	8.11
CC(C)(O)[C@@H]1CCCN1C(=O)c1ccc(-c2cc(-c3n[nH]c4cc(Br)ccc34)on2)cc1 [A4, {4-[5-(6-bromo-1H-indazol-3-yl)-isoxazol-3-yl]-phenyl}-[(S)-2-(1-hydroxy-1-methyl-ethyl)-pyrrolidin-1-yl]-methanone]	6.48	7.89		
[2H]C1([2H])N(C(=O)c2ccc(-c3cc(-c4n[nH]c5cc(OCCO)c(F)cc45)on3)cc2)C([2H])([2H])C([2H])([2H])N(C2COC2)C1([2H])[2H] [A234, 2-{[5-fluoro-3-(3-{4-[4-(oxetan-3-yl)(2,2,3,3,5,5,6,6-^2H8)piperazine-1-carbonyl]phenyl}-1,2-oxazol-5-yl)-1H-indazol-6-yl]oxy}ethan-1-ol]	6.77	9.05		

Continued, values first:

pIC50 [1, 2]	pIC50 (c-Kit(V654A); Table 1, 200 μM ATP)	pIC50 [1, 3]	pIC50 (c-Kit(V654A); [3])	SMILES
6.92	8.59			COCCOc1cc2[nH]nc(-c3cc(-c4ccc(C(=O)N5CCC56COC6)c(F)c4)no3)c2cc1F [A170, (2-fluoro-4-{5-[5-fluoro-6-(2-methoxy-ethoxy)-1H-indazol-3-yl]-isoxazol-3-yl}-phenyl)-(6-oxa-1-aza-spiro[3.3]hept-1-yl)-methanone]
7.20	8.85			COCCOc1cc2[nH]nc(-c3cc(-c4ccc(C(=O)N5CC(N6CCOCC6)C5)c(C)c4)no3)c2cc1F [A171, (4-{5-[5-fluoro-6-(2-methoxy-ethoxy)-1H-indazol-3-yl]-isoxazol-3-yl}-2-methyl-phenyl)-(3-morpholin-4-yl-azetidin-1-yl)-methanone]
6.80	9.05			COCCOc1cc2[nH]nc(-c3cc(-c4ccc(C(=O)N5CC(N6CCN(C)CC6)C5)cc4)no3)c2cc1Cl [A65, (4-{5-[5-chloro-6-(2-methoxy-ethoxy)-1H-indazol-3-yl]-isoxazol-3-yl}-phenyl)-[3-(4-methyl-piperazin-1-yl)-azetidin-1-yl]-methanone]
7.31	8.48			COCCOc1cc2[nH]nc(-c3cc(-c4ccc(C(=O)N5CC(N6CCOCC6)C5)c(F)c4)no3)c2cc1F [A168, (2-fluoro-4-{5-[5-fluoro-6-(2-methoxy-ethoxy)-1H-indazol-3-yl]-isoxazol-3-yl}-phenyl)-(3-morpholin-4-yl-azetidin-1-yl)-methanone]
6.55	8.10			COc1cc2[nH]nc(-c3cc(-c4ccc(C(=O)N5CCN(C6COC6)CC5)cc4)no3)c2cc1F [A219, {4-[5-(5-Fluoro-6-methoxy-1H-indazol-3-yl)-isoxazol-3-yl]-phenyl}-(4-oxetan-3-yl-piperazin-1-yl)-methanone]
6.80	8.09			COCCOc1cc2[nH]nc(-c3cc(-c4ccc(NC(C)=O)cc4)no3)c2cc1F [A18, N-(4-{5-[5-fluoro-6-(2-methoxyethoxy)-1H-indazol-3-yl]-1,2-oxazol-3-yl}phenyl)acetamide]
7.39	9.23			COCCOc1cc2[nH]nc(-c3cc(-c4ccc(C(=O)N5CC(c6cncnc6)C5)cc4)no3)c2cc1F [A212, 5-fluoro-6-(2-methoxyethoxy)-3-(3-{4-[3-(pyrimidin-5-yl)azetidine-1-carbonyl]phenyl}-1,2-oxazol-5-yl)-1H-indazole]
6.49	8.59			COCCOc1cc2[nH]nc(-c3cc(-c4ccc(C(=O)N5CCC6(CC5)CN(C)C6)cc4)no3)c2cc1F [A176, 7-(4-{5-[5-fluoro-6-(2-methoxyethoxy)-1H-indazol-3-yl]-1,2-oxazol-3-yl}benzoyl)-2-methyl-2,7-diazaspiro[3.5]nonane]
6.82	8.70			COCCOc1cc2[nH]nc(-c3cc(-c4ccc(S(C)(=N)=O)cc4)no3)c2cc1F (stereo not shown) [A226, (4-{5-[5-fluoro-6-(2-methoxyethoxy)-1H-indazol-3-yl]-1,2-oxazol-3-yl}phenyl)(imino)methyl-lambda6-sulfanone]
7.25	9.14			COCCOc1cc2[nH]nc(-c3cc(-c4ccc(C(=O)N5CCS(=O)(=O)CC5)cc4)no3)c2cc1F [A30, 4-(4-{5-[5-fluoro-6-(2-methoxyethoxy)-1H-indazol-3-yl]-1,2-oxazol-3-yl}benzoyl)-1lambda6-thiomorpholine-1,1-dione]
7.37	9.49			COCCOc1cc2[nH]nc(-c3cc(-c4ccc(C(=O)N5C[C@@H]6CS(=O)(=O)C[C@@H]6C5)cc4)no3)c2cc1F [A217, (cis)-5-(4-{5-[5-fluoro-6-(2-methoxyethoxy)-1H-indazol-3-yl]-1,2-oxazol-3-yl}benzoyl)-hexahydro-1H-2lambda6-thieno[3,4-c]pyrrole-2,2-dione]
7.40	9.12			COCCOc1cc2[nH]nc(-c3cc(-c4ccc(C(=O)N5CCC[C@H]5CS(C)(=O)=O)cc4)no3)c2cc1F [A7, 5-fluoro-3-(3-{4-[(2S)-2-(methanesulfonylmethyl)pyrrolidine-1-carbonyl]phenyl}-1,2-oxazol-5-yl)-6-(2-methoxyethoxy)-1H-indazole]
7.32	8.42			COCCOc1cc2[nH]nc(-c3cc(-c4ccc(C(=O)N5CCN(C6COC6)CC5)c(F)c4)no3)c2cc1F [A196, (2-fluoro-4-{5-[5-fluoro-6-(2-methoxy-ethoxy)-1H-indazol-3-yl]-isoxazol-3-yl}-phenyl)-(4-oxetan-3-yl-piperazin-1-yl)-methanone]
7.47	9.21			COCCOc1cc2[nH]nc(-c3cc(-c4ccc(C(=O)N5CCN(C6CCOCC6)CC5)cc4)no3)c2cc1F [A188, 5-fluoro-6-(2-methoxyethoxy)-3-(3-{4-[4-(oxan-4-yl)piperazine-1-carbonyl]phenyl}-1,2-oxazol-5-yl)-1H-indazole]
5.96	8.32			COCCOc1cc2[nH]nc(-c3cc(-c4ccc(N5CC(N6CCOCC6)C5)nc4)no3)c2cc1F [A145, 5-fluoro-6-(2-methoxyethoxy)-3-(3-{6-[3-(morpholin-4-yl)azetidin-1-yl]pyridin-3-yl}-1,2-oxazol-5-yl)-1H-indazole]
7.14	8.60			COCCOc1cc2[nH]nc(-c3cc(-c4ccc(C(=O)N5CCN(C6COC6)CC5)c(C)c4)no3)c2cc1F [A193, (4-{5-[5-fluoro-6-(2-methoxy-ethoxy)-1H-indazol-3-yl]-isoxazol-3-yl}-2-methyl-phenyl)-(4-oxetan-3-yl-piperazin-1-yl)-methanone]
7.55	9.12			COCCOc1cc2[nH]nc(-c3cc(-c4ccc(C(=O)N5CC6(CCN(C7COC7)CC6)C5)cc4)no3)c2cc1F [A199, 2-(4-{5-[5-fluoro-6-(2-methoxyethoxy)-1H-indazol-3-yl]-1,2-oxazol-3-yl}benzoyl)-7-(oxetan-3-yl)-2,7-diazaspiro[3.5]nonane]
